Measurements taken from patent US9556196B2, “Anti-platelet compound addition salt” (GUANGZHOU HEERSHI PHARMA DEVELOPMENT CO., LTD, priority 2011, dated 2017).
Where a name gives a salt, the structure may show the parent alone. Read-outs that look alike come from different tables or passages of the source.

Columns and labels:
[1] = Solubility test for several solid acid addition salts; assay type: physicochemical
Procedure: The Solubility Test for Several Solid Acid Addition Salt
In general, it is necessary for a drug with good bioavailability to have a good solubility. Typically, the desired solubility of a drug in a pH range of 1-7.5 is at least 1 mg/ml.

wistar rat [2] = experiment: Current injury carotid artery thrombosis method (time of thrombosis formation); assay type: in vivo; conditions: oral gavage, consecutive 3 days, 2 hours after the last administration
Procedure: To compare the pharmacologic effect between the screened salts and the free compound of formula I, the following arterial thrombosis test was carried out with clopidogrel as the positive drug.
I. Investigation on the Time of Thrombosis Formation,
(§1) Animal: wistar rat, 220-260 g in weight, male, 6-8 each group.
Grouping: control group, positive drug group (clopidogrel, 10 mg/kg), free compound of formula I, hydrochloride of the compound of formula I and L-camphor sulfonate of the compound of formula I (two dosages for each group, 3 and 9 mg/kg respectively based on the free compound of formula I).
Method: current injury carotid artery thrombosis method and platelet aggregation test.
Drug Administration: oral gavage.
Index observed: the drug was administrated for consecutive 3 days. 2 hours after the last administration, current injury carotid artery thrombosis method was carried out to observe the time of thrombosis formation. Femoral artery blood was sampled and separated to obtain the platelet. The effect on platelet aggregation was investigated with inducing agent ADP for each group, and at the same time, the bleeding time was determined.

wistar rat [3] = experiment: Arteriovenous shunt thrombosis in polyethylene tube method (weight of thrombosis); assay type: in vivo; conditions: oral gavage, consecutive 3 days, 2 hours after the last administration, shunt lasted 15 min, wet or dry weight not stated
Procedure: II. Investigation on the Weight of Thrombosis
as §1
Grouping: the same as above.
Method: Arteriovenous shunt thrombosis in polyethylene tube method.
Index Observed The drug was administrated for consecutive 3 days. 2 hours after the last administration, arteriovenous anastomosis thrombosis was lasted for 15 min, the wet weight and dry weight of the thrombosis formed was investigated.

[4] = Water solubility of the free compound (inventor's research); assay type: physicochemical
[5] = Stability of the free compound in aqueous solution with weak acid or base; assay type: physicochemical; conditions: presence of weak acid or base in an aqueous solution for a period of time; produces degradation products
[6] = Accelerated stability test of the sulfonates formulated into tablets or capsules; assay type: physicochemical; conditions: tablets or capsules with excipients, 50° C.±2° C., relative humid of 75% ±5%, end of the third month, TLC, stable = no occurrence of impurity
Procedure: A solid active ingredient with excellent stability is necessary for a solid formulation. To screen a suitable salt with chemical stability, the sulfonates prepared above was formulated into tablets or capsules with powdered excipients. The tablets included microcrystalline cellulose and anhydrous calcium dihydrogen phosphate with a ratio of 1:1. The capsules included Mannitol and Corn starch with a ratio of 4:1. And then, the tablets and the capsules were placed at the temperature of 50° C.±2° C. (incubator with constant temperature and humidity) with relative humid of 75% ±5% (saturated sodium chloride solution) for accelerated test. Sampling at the end of the third month, the tablets and the capsules were crushed and extracted with methanol:chloroform (1:1), and TLC was used to check the stability of the product and the salt was deemed as stable with no occurrence of impurity.

[7] = 3 mg/kg based on the free compound of formula I
[8] = 9 mg/kg based on the free compound of formula I

## COC(=O)C(c1ccccc1Cl)N1CCc2sc(OC(=O)c3ccccc3OC(C)=O)cc2C1 (centres unmarked) [Benzenesulfonate]
[1]; read-out: Solubility
  Solubility: 2500 µg/mL

## COC(=O)[C@H](c1ccccc1Cl)N1CCc2sccc2C1 [Clopidogrel, clopidogrel, reference compound]
Wistar rat [2]; 10 mg/kg
  Thrombosis formation time: 249.9 ± 58.0 s
Wistar rat [3]; 10 mg/kg
  Weight of thrombosis: 3.2 ± 0.5 mg

## COC(=O)C(c1ccccc1Cl)N1CCc2sc(OC(=O)c3ccccc3OC(C)=O)cc2C1 (centres unmarked) [Free Base, methyl 2-(2-chlorophenyl)-2-(2-acetyl-salicylic acyloxy-4,5,6,7-tetrahydro-thieno[3,2-C]pyridine)-5-acetate]
[4]
  Water solubility (in words): almost insoluable in water
Wistar rat [2]; [7]
  Thrombosis formation time: 165 ± 22.4 s
Wistar rat [2]; [8]
  Thrombosis formation time: 261 ± 54.3#,& s
Wistar rat [3]; [7]
  Weight of thrombosis: 4.0 ± 0.6 mg
Wistar rat [3]; [8]
  Weight of thrombosis: 3.0 ± 0.5#,& mg
[5]
  Stability (in words): not stable enough

## COC(=O)C(c1ccccc1Cl)N1CCc2sc(OC(=O)c3ccccc3OC(C)=O)cc2C1 (centres unmarked) [Hydrobromide]
[1]
  Solubility: 500 µg/mL

## COC(=O)C(c1ccccc1Cl)N1CCc2sc(OC(=O)c3ccccc3OC(C)=O)cc2C1 (centres unmarked) [Hydrochloride]
Wistar rat [2]; [7]
  Thrombosis formation time: 210.4 ± 51.1 s
Wistar rat [2]; [8]
  Thrombosis formation time: 319.6 ± 35.2#,H,&,Y s
[1]
  Solubility: 20 µg/mL
Wistar rat [3]; [7]
  Weight of thrombosis: 3.2 ± 0.7#,Y mg
Wistar rat [3]; [8]
  Weight of thrombosis: 2.8 ± 0.5 mg

## COC(=O)C(c1ccccc1Cl)N1CCc2sc(OC(=O)c3ccccc3OC(C)=O)cc2C1 [L-camphor sulfonate]
[6]
  Stability: Stable
[6]; listed as camphor sulfonate
  Stability: the most stable one
Wistar rat [2]; [7]
  Thrombosis formation time: 250.4 ± 35.2 ,Y,* s
Wistar rat [2]; [8]
  Thrombosis formation time: 360.2 ± 55.9#,H,&,Y,* s
[1]
  Solubility: 4700 µg/mL
Wistar rat [3]; [7]
  Weight of thrombosis: 3.0 ± 0.7#,Y mg
Wistar rat [3]; [8]
  Weight of thrombosis: 2.5 ± 0.4 H,&,Y mg

## COC(=O)C(c1ccccc1Cl)N1CCc2sc(OC(=O)c3ccccc3OC(C)=O)cc2C1 (centres unmarked) [Methanesulfonate]
[6]
  Stability: Stable
[1]
  Solubility: 8200 µg/mL

## COC(=O)C(c1ccccc1Cl)N1CCc2sc(OC(=O)c3ccccc3OC(C)=O)cc2C1 (centres unmarked) [P-toluenesulfonate]
[6]
  Stability: Stable
[1]
  Solubility: 1200 µg/mL
